From the NIST ThermoML archive (doi:10.1016/j.jct.2004.11.009)

How the values were obtained:
[1] = 101.33 kPa, Liquid
[2] = xn = mol fraction of the nth substance listed; conditions: 101.33 kPa, Liquid, x2 = 0

Cc1cccnc1 [3-methylpyridine]
[1]
Conditions	mass density [kg/m3]	viscosity [mPa·s]
293.15 K	956	0.9459
303.15 K	946.6	0.8318
313.15 K	937.7	0.7352
323.15 K	928.3	0.6565
333.15 K	919.3	0.5936
343.15 K	910.3	0.539

O [water] + Cc1cccnc1
[2]
Conditions	mass density [kg/m3]	viscosity [mPa·s]
293.15 K	–	1.002
303.15 K	–	0.7977
313.15 K	–	0.6532
323.15 K	988	0.547
333.15 K	983.2	0.4665
343.15 K	977.8	0.404
